Data reported in paper PMC10804372, “Degradation by Design: New Cyclin K Degraders from Old CDK Inhibitors” (ACS Chemical Biology, 2024).
Values belong to the compound of their own block, whether it stands above or below them.

Columns and labels:
PAMPA permeability = assay type: in vitro ADME; conditions: for Papp: pH 7.4, PAMPA, pH7.4, read-out: pH7.4 Papp x 10^-6
Cyclin K [1] = experiment: Cyclin K levels by Western blot after single-concentration treatment; assay type: cell-based, human; conditions: HEK293T cells, 1 μM for 2 h; for Remaining Cyclin K (%): quantified from Western blots, mean ± SD, three independent experiments; for cyclin K degradation: Western blot
Experimental: (§1) HEK293T human […] kidney cells were cultured in DMEM (Gibco/Life Technologies), containing 25 mM D-glucose, 4 mM L-glutamine, and 1 mM sodium pyruvate, and supplemented with 10% (v/v) FBS and 1% nonessential amino acids (Gibco/Life Technologies). Cells were incubated at 37 °C in a humidified atmosphere with 5% CO2.
(§2) Cells were washed with PBS and lysed (20 mM HEPES pH 7.5, 10% glycerol, 0.4 M KCl, 0.4% Triton X-100, 15 mM EDTA, and 1× protease and phosphatase inhibitors). The insoluble fraction was removed by centrifugation. Protein quantification was performed using a Bradford assay and compared to a BSA calibration curve. Equal amounts of lysates were run on SDS–PAGE 4–12% Bis–Tris Protein Gels (NuPAGE, Thermo Fisher Scientific) and then transferred onto Immobilon-P PVDF Membrane (Millipore, IPVH00010) using a Mini Trans-Blot Cell (Bio-Rad, 1703930). The membranes were blocked with 5% bovine albumin serum (BSA) in Tris-buffered saline with Tween 20 (TBS-T) and incubated with primary antibodies overnight at 4 °C. The membranes were washed three times with TBS-T and incubated with HRP-conjugated secondary antibody (BioRad) for 2 h. Membranes were washed again three times with TBS-T before being developed using Pierce ECL Western Blotting Substrate (Thermo, 32106) and visualized using LI-COR. Antibodies were purchased from Cell Signaling Technology: anti-GAPDH (D4C6R) and anti-DDB1 (D4C8) or Bethyl Laboratories: anti-Cyclin K (A301-939A). The following HRP-linked secondary antibodies were used by dilution in 5% BSA/TBS-T: antirabbit IgG (BioRad, 5213–2504) and antimouse IgG (BioRad, 103005).
(§3) Unedited blots containing the marker lane are available on request. Western blots were quantified using ImageJ. Cyclin K levels were normalized using GAPDH as a loading control. DC50 values were calculated from concentration–response curves using nonlinear regression fit to a 4-parameter curve by GraphPad Prism.

Cyclin K [2] = experiment: Cyclin K degradation concentration-response (DC50, DMax) by Western blot; assay type: cell-based, human; conditions: HEK293T, Western blot quantification, 3 biological repeats
Experimental: With the aim of comparing the degradation ability of the new analogues, we derived DC50 values by using Western blotting (Table 5). […] This approach has been previously used to improve the potency of BCL6 degraders.[33] We therefore also measured CDK12 affinity using the KINOMEscan binding assay (Table 5).[34]
as §1, §2, §3

HEK293T cells = experiment: Proteome-wide quantitation by mass spectrometry (TMT); assay type: cell-based, human; conditions: for log2FC compound 37: 1 uM 2h vs DMSO
CDK12 = biological target: T1, CDK12 (Homo sapiens, UniProt Q9NYV4); experiment: KINOMEscan binding assay (Eurofins DiscoverX)
T1 construct: purchased Eurofins DiscoverX (KINOMEscan service)
T1 sequence (Q9NYV4 whole entry): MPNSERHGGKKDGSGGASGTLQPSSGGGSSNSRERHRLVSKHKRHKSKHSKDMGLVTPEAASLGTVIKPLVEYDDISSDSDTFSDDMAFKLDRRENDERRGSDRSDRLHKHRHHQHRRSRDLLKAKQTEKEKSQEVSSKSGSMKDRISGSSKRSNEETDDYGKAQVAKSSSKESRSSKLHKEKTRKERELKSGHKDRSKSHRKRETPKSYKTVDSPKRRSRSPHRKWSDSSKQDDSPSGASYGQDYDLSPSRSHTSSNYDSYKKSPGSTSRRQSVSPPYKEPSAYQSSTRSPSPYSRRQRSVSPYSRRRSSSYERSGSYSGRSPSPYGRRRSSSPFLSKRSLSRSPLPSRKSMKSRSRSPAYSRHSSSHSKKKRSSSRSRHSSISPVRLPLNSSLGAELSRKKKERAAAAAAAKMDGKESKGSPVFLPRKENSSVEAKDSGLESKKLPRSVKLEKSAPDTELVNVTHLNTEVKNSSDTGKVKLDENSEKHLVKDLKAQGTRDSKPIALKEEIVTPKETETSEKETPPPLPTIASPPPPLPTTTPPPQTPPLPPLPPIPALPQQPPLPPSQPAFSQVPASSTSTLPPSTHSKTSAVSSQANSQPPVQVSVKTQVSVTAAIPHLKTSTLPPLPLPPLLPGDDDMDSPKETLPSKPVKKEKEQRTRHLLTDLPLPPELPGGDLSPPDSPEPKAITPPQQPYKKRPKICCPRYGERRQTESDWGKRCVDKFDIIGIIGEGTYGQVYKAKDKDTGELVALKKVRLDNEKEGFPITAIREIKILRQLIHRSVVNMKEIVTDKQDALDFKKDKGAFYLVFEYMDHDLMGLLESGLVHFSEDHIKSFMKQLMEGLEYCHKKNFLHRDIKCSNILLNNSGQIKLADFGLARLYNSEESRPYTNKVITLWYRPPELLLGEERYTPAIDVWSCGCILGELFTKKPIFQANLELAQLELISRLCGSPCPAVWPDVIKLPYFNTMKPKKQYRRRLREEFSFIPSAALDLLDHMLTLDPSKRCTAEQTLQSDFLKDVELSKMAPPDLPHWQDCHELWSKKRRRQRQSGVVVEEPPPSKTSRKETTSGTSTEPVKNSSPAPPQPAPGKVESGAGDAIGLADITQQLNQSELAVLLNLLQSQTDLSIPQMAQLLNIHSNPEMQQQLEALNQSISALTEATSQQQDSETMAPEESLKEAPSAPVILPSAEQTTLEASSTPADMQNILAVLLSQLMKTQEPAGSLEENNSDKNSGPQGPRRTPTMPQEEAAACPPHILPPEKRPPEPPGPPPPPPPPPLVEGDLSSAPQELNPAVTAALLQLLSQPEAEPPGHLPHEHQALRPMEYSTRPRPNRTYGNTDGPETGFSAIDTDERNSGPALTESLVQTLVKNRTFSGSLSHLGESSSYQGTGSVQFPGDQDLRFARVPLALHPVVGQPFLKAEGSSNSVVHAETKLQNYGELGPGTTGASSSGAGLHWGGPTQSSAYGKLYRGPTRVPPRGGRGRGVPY

Structure (SMILES): CC[C@H](CO)Nc1nc(NCc2ccc(C3CCCCC3)cc2)c2ncn(C(C)C)c2n1 [compound 23]
Papp (PAMPA permeability): 12.7 ×10⁻⁶ cm/s | cyclin K degradation (Cyclin K [1]): degradation ability was significantly reduced | Remaining Cyclin K (%) (Cyclin K [1]): 74 ± 10%

Structure (SMILES): CC[C@H](CO)Nc1nc(NCc2ccc(N3CCOCC3)cc2)c2ncn(C(C)C)c2n1 [compound 25]
PAMPA permeability (PAMPA permeability): comparable permeabilities | Papp (PAMPA permeability): 41 ×10⁻⁶ cm/s | cyclin K degradation (Cyclin K [1]): only partial degradation | Remaining Cyclin K (%) (Cyclin K [1]): 41 ± 23%

Structure (SMILES): OCCC1CCCCN1c1cc(NCc2ccc(C3=CCOCC3)cc2)n2ncc(Br)c2n1 (stereo not drawn) [compound 37]
DMax (%) (Cyclin K [2]): 75% | DC50 (Cyclin K [2]; read-out: CycK DC50): 41 nM | number of proteins showing at least a −0.5 log2 fold change (HEK293T cells; HEK293T, 1 μM, 2 h treatment): 28 proteins | cyclin K log2 fold decrease (HEK293T cells; HEK293T, 1 μM, 2 h vs DMSO): 0.75 log2 fold | log2FC compound 37 (HEK293T cells; protein ARF4): 0.5982 | log2FC compound 37 (HEK293T cells; protein C1orf167): 0.8136 | log2FC compound 37 (HEK293T cells; protein CBX6): -0.9913 | log2FC compound 37 (HEK293T cells; protein CCNE2): 0.934 | log2FC compound 37 (HEK293T cells; protein CCNK (Cyclin-K)): -0.7468 | log2FC compound 37 (HEK293T cells; protein CD9): 0.636 | log2FC compound 37 (HEK293T cells; protein CD59): 1.0368 | log2FC compound 37 (HEK293T cells; protein CD63): 1.1474 | log2FC compound 37 (HEK293T cells; protein CD151): 0.6898 | log2FC compound 37 (HEK293T cells; protein CDKL5): 1.0373 | log2FC compound 37 (HEK293T cells; protein CHCHD2): -1.0001 | log2FC compound 37 (HEK293T cells; protein CHTOP): -0.8383 | log2FC compound 37 (HEK293T cells; protein COPRS): 0.6 | log2FC compound 37 (HEK293T cells; protein COX6B1): 0.6513 | log2FC compound 37 (HEK293T cells; protein COX7A2): -1.2026 | log2FC compound 37 (HEK293T cells; protein DCDC1): 1.1229 | log2FC compound 37 (HEK293T cells; protein DDX56): -0.6203 | log2FC compound 37 (HEK293T cells; protein DHX58): 0.8865 | log2FC compound 37 (HEK293T cells; protein ECI1): 0.6918 | log2FC compound 37 (HEK293T cells; protein EI24): 0.7719 | log2FC compound 37 (HEK293T cells; protein FAM234A): 0.6256 | log2FC compound 37 (HEK293T cells; protein FITM2): 0.6697 | log2FC compound 37 (HEK293T cells; protein FYTTD1): -2.375 | log2FC compound 37 (HEK293T cells; protein H2AC6): -2.0131 | log2FC compound 37 (HEK293T cells; protein H2AC14): -1.9547 | log2FC compound 37 (HEK293T cells; protein HES1): -0.614 | log2FC compound 37 (HEK293T cells; protein HEY1): -0.6221 | log2FC compound 37 (HEK293T cells; protein HMGN2): -0.636 | log2FC compound 37 (HEK293T cells; protein KCTD1): 0.7125 | log2FC compound 37 (HEK293T cells; protein LIPA): 0.6704 | log2FC compound 37 (HEK293T cells; protein LPCAT3): 1.2861 | log2FC compound 37 (HEK293T cells; protein LPIN2): 0.6164 | log2FC compound 37 (HEK293T cells; protein LSM1): 0.8572 | log2FC compound 37 (HEK293T cells; protein MBTPS2): 0.6567 | log2FC compound 37 (HEK293T cells; protein MEIS1): -0.7346 | log2FC compound 37 (HEK293T cells; protein MGARP): 0.6836 | log2FC compound 37 (HEK293T cells; protein MSMO1): 0.6345 | log2FC compound 37 (HEK293T cells; protein MT-ND4): 0.6222 | log2FC compound 37 (HEK293T cells; protein NSA2): -1.3835 | log2FC compound 37 (HEK293T cells; protein NXT2): 1.1373 | log2FC compound 37 (HEK293T cells; protein PPP1CB): -0.7306 | log2FC compound 37 (HEK293T cells; protein PPP1R15B): -0.7195 | log2FC compound 37 (HEK293T cells; protein PRNP): 0.8396 | log2FC compound 37 (HEK293T cells; protein RER1): 0.5962 | log2FC compound 37 (HEK293T cells; protein RPF1): -0.9869 | log2FC compound 37 (HEK293T cells; protein RPS14): -0.5979 | log2FC compound 37 (HEK293T cells; protein RPS29): -0.7373 | log2FC compound 37 (HEK293T cells; protein SIAE): 0.6299 | log2FC compound 37 (HEK293T cells; protein SLC44A2): 0.8263 | log2FC compound 37 (HEK293T cells; protein SNAI2): -1.0919 | log2FC compound 37 (HEK293T cells; protein SURF6): -0.5977 | log2FC compound 37 (HEK293T cells; protein TMSB4X): -0.7637 | log2FC compound 37 (HEK293T cells; protein TOB1): -1.2431 | log2FC compound 37 (HEK293T cells; protein TOB2): -0.8728 | log2FC compound 37 (HEK293T cells; protein TVP23C): 0.6132 | log2FC compound 37 (HEK293T cells; protein WHAMM): -1.0385 | log2FC compound 37 (HEK293T cells; protein ZBTB17): 0.799 | log2FC compound 37 (HEK293T cells; protein ZKSCAN2): -0.5989 | log2FC compound 37 (HEK293T cells; protein ZNF92): -0.7406 | log2FC compound 37 (HEK293T cells; protein ZNF385A): -0.6523 | cyclin K degradation (Cyclin K [1]): only partial degradation | Remaining Cyclin K (%) (Cyclin K [1]): 32 ± 11% | fold better CDK12 affinity versus CR8/seliciclib-core analogue (CDK12; 36 vs 1, 37 vs 21): 25 fold | Kd (CDK12; KINOMEscan): 12 nM

The next lines start with results.

Papp (PAMPA permeability): < 0.3 ×10⁻⁶ cm/s
Structure (SMILES): CC[C@H](CO)Nc1nc(NCc2ccc(-c3ccc(O)cn3)cc2)c2ncn(C(C)C)c2n1 [compound 8]
Remaining Cyclin K (%) (Cyclin K [1]): 94 ± 9%

Papp (PAMPA permeability): < 0.4 ×10⁻⁶ cm/s
Structure (SMILES): CC[C@H](CO)Nc1nc(NCc2ccc(-c3ncccc3O)cc2)c2ncn(C(C)C)c2n1 [compound 20]
cyclin K degradation (Cyclin K [1]): reduced degradation ability compared to CR8 | Remaining Cyclin K (%) (Cyclin K [1]): 35 ± 3%

Papp (PAMPA permeability): < 0.3 ×10⁻⁶ cm/s
Structure (SMILES): CC[C@H](CO)Nc1nc(NCc2ccc(-c3cn(C)cn3)cc2)c2ncn(C(C)C)c2n1 [compound 30]
cyclin K degradation (Cyclin K [1]): decreased degradation ability | Remaining Cyclin K (%) (Cyclin K [1]): 38 ± 21%

PAMPA permeability (PAMPA permeability): low permeability | Papp (PAMPA permeability): < 0.2 ×10⁻⁶ cm/s
Structure (SMILES): CC[C@H](CO)Nc1nc(NCc2ccc(-c3cn[nH]c3)cc2)c2ncn(C(C)C)c2n1 [compound 31]
cyclin K degradation (Cyclin K [1]): complete loss of degradation | Remaining Cyclin K (%) (Cyclin K [1]): 93 ± 10%
